Experimental data reported in patent US8282721B2, “Coloring composition, thermal transfer recording ink sheet, thermal transfer recording method, color toner, inkjet ink, color filter, and arylidene-pyrazolone dye” (FUJIFILM Corporation, priority 2008, dated 2012).

Tests used:
Type in all cases: physicochemical
[1] = Light fastness of thermal transfer recorded image (Xe light exposure); conditions: Xe light (17000 lux) for 7 days; retention of status A reflection density 1.0; image from thermal transfer ink sheet
Text: (§1) The thermal transfer recording ink sheet produced in Example 201 and the image-receiving material constructed as above were combined in such a manner that the dye-donating layer could face the image-receiving layer, and this was printed using a thermal head applied to the back of the dye-donating material. The output power of the thermal head was 0.25 W/dot, pulse width was from 0.15 to 15 msec, the dot density was 6 dots/mm. In that manner, the magenta dye was imagewise fixed on the image-receiving layer of the image-receiving material, and as a result, a sharp image print with no transfer unevenness was obtained.
(§2) The thermal transfer recording ink sheets produced in Example 202 to 204 and produced in Comparative Example 201 to 203 were used in place of the thermal transfer recording ink sheet produced in Example 201, tested for image recording.
Next, the thermal transfer image-receiving material that had been recorded by the thermal transfer were exposed to a Xe light (17000 lux) for 7 days, and tested for the light stability (light fastness) of the recorded images. After the exposure, the status A reflection density of the part of each sample having an original status A reflection density of 1.0 before the exposure was measured, and the retention (by percentage) to the reflection density of 1.0 after exposure to that before exposure indicates the image stability. With the retention percentage, the samples were ranked in three, A (from 90% to less than 100%), B (from 80% to less than 90%), C (less than 80%).

[2] = Wet heat fastness of thermal transfer recorded image (80° C., 70% RH, dark); conditions: 80° C. and 70% RH in a dark place for 7 days; retention of Status A reflection density 1.0; image from thermal transfer ink sheet
Text: as §1, §2
Further, the thermal transfer image-receiving material that had been recorded by the thermal transfer in the same manner as above were stored under the condition of 80° C. and 70% RH in a dark place for 7 days, and checked for the wet heat stability (wet heat fastness) of the image. After exposure to light, the Status A reflection density of the area having an initial Status A reflection density of 1.0 was measured; and the density retentiveness (percentage) relative to the original reflection density 1.0 before exposure to light was computed. Based on the computed data, the samples were evaluated with regard to the stability into three ranks, A (from 90% to less than 100%), B (from 80% to less than 90%), and C (less than 80%).

[3] = Dye solubility in methyl ethyl ketone/toluene; parameters: key: A (easily soluble); B (soluble); C (difficult to dissolve, but soluble); conditions: solvent methyl ethyl ketone/toluene (1/1, w/w), ranked in three
Text: The dye solubility of each compound in the solvent of methyl ethyl ketone/toluene (1/1, w/w) was ranked in three, A (easily soluble), B (soluble), C (difficult to dissolve, but soluble).

[4] = Evaluation of maximum absorption wavelength (absorption spectrometry in ethyl acetate solution); conditions: concentration 1×10^−6 mol/L, optical path length 10 mm
Description: <Evaluation of Maximum Absorption Wavelength>
The thus-obtained arylidene-pyrazolone dyes of Examples 101 to 105 were analyzed absorption spectrometry in an ethyl acetate solution (concentration: 1×10^−6 mol/L, optical path length: 10 mm).

Light Fastness [1] | Wet Heat Fastness [2] | Solubility [3] | Maximum Absorption Wavelength [4] [nm] | Compound
A (A (from 90% to less than 100%)) | A (A (from 90% to less than 100%)) | A | 468 | CCOC1=NN(S(C)(=O)=O)C(=O)/C1=C\c1ccc(N(CC)CC)cc1 [Compound Y-1]
A (A (from 90% to less than 100%)) | A (A (from 90% to less than 100%)) | A | 462 | CCOC1=NN(S(=O)(=O)N(C)C)C(=O)/C1=C\c1ccc(N(CC)CC)cc1 [Compound Y-8]

The remaining lines, values behind:

Compound | Light Fastness [1] | Wet Heat Fastness [2] | Solubility [3] | Maximum Absorption Wavelength [4] [nm]
CCOC1=NN(c2ccccc2)C(=O)/C1=C\c1ccc(N(CC)CC)cc1 [Comparative Dye 2] | A (A (from 90% to less than 100%)) | C (C (less than 80%)) | B | 
CCOC1=NN(C)C(=O)/C1=C\c1ccc(N(CC)CC)cc1 [Comparative Dye 3] | B (B (from 80% to less than 90%)) | C (C (less than 80%)) | A | 
C.I.Disperse Yellow 201 [Comparative Dye 1] | A (A (from 90% to less than 100%)) | C (C (less than 80%)) | A | 
